Laboratory results published in ChEMBL document CHEMBL4507273 (2021).

Experiments:
[1] = molecular target: Receptor-type tyrosine-protein kinase FLT3 (Homo sapiens) (UniProt P36888); settings: Compound concentration 1000.0 nM
[2] = molecular target: Mast/stem cell growth factor receptor Kit (Homo sapiens) (UniProt P10721); settings: Compound concentration 1000.0 nM
[3] = molecular target: Receptor-type tyrosine-protein kinase FLT3 (Homo sapiens) (UniProt P36888); settings: Compound concentration 1000.0 nM; remark: listed apart in the source
[4] = molecular target: Serine/threonine-protein kinase MRCK gamma (Homo sapiens) (UniProt Q6DT37); settings: Compound concentration 1000.0 nM
[5] = molecular target: Serine/threonine-protein kinase NIM1 (Homo sapiens) (UniProt Q8IY84); settings: Compound concentration 1000.0 nM
[6] = molecular target: Serine/threonine-protein kinase Chk2 (Homo sapiens) (UniProt O96017); settings: Compound concentration 1000.0 nM
[7] = molecular target: Dual specificity protein kinase CLK2 (Homo sapiens) (UniProt P49760); settings: Compound concentration 1000.0 nM
[8] = test system: Proto-oncogene tyrosine-protein kinase receptor Ret (Homo sapiens), P07949 [V804M]; settings: Compound concentration 1000.0 nM
[9] = molecular target: Tyrosine-protein kinase ZAP-70 (Homo sapiens) (UniProt P43403); settings: Compound concentration 1000.0 nM
[10] = molecular target: Dual specificity protein kinase TTK (Homo sapiens) (UniProt P33981); settings: Compound concentration 1000.0 nM
[11] = molecular target: Tyrosine-protein kinase TXK (Homo sapiens) (UniProt P42681); settings: Compound concentration 1000.0 nM
Tyrosine-protein kinase TXK (Homo sapiens), sequence (P42681 whole entry): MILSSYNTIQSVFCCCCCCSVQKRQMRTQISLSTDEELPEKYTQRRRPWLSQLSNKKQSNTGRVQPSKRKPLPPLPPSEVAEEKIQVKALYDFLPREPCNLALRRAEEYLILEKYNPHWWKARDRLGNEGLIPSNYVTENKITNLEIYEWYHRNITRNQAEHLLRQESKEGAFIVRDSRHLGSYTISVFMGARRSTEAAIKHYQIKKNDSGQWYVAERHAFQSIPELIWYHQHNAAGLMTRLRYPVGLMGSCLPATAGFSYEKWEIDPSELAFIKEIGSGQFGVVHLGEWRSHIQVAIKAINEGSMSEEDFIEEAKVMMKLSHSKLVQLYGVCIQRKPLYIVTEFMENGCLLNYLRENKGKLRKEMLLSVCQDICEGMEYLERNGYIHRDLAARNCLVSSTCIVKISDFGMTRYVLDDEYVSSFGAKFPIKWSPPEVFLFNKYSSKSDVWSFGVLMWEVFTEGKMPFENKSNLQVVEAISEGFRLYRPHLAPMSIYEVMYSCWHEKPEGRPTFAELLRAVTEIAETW

[12] = molecular target: T1, Muscarinic acetylcholine receptor M5 (Homo sapiens, UniProt P08912); assay: GPCRScan assay: inhibition of M5; parameters: radioligand conc. used [nm] 0.2 – 1.0, parental cells stable CHO
T1 sequence (P08912 whole entry): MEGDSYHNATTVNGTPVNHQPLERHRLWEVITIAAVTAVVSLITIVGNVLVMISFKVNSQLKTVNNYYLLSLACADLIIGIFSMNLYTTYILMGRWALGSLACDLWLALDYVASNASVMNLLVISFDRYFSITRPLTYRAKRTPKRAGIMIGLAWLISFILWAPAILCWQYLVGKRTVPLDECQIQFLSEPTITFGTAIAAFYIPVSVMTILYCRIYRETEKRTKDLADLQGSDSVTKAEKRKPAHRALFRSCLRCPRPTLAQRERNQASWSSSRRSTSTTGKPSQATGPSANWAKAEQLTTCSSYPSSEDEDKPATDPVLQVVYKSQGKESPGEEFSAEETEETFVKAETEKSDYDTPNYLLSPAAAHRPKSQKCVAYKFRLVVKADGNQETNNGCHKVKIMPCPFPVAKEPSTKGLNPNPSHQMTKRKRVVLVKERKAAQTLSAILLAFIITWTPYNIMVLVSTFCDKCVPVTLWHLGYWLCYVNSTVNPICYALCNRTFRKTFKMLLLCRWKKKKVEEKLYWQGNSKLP

[13] = molecular target: Rhodopsin kinase GRK1 (Homo sapiens) (UniProt Q15835); settings: Compound concentration 1000.0 nM
[14] = test system: Receptor-type tyrosine-protein kinase FLT3 (Homo sapiens), P36888 [N841I]; settings: Compound concentration 1000.0 nM
[15] = molecular target: Protein-tyrosine kinase 2-beta (Homo sapiens) (UniProt Q14289); settings: Compound concentration 1000.0 nM
[16] = molecular target: 5-hydroxytryptamine receptor 2A (Homo sapiens, UniProt P28223); assay: GPCRScan assay: inhibition of 5-HT2A; parameters: radioligand conc. used [nm] 1.2 – 2.4, parental cells HEKT
5-hydroxytryptamine receptor 2A, sequence (P28223 whole entry): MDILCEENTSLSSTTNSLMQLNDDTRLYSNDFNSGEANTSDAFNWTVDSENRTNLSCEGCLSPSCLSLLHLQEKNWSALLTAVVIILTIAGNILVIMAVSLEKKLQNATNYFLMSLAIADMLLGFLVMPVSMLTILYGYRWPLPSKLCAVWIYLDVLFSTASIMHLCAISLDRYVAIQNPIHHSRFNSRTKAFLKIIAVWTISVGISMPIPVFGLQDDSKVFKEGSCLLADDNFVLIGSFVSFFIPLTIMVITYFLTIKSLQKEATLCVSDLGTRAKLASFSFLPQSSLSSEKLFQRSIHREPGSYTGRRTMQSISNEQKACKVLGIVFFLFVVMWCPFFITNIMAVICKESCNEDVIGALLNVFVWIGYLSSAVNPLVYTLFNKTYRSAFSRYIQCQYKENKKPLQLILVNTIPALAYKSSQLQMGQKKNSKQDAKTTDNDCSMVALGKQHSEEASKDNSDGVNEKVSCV

[17] = molecular target: Mitogen-activated protein kinase 12 (Homo sapiens) (UniProt P53778); settings: Compound concentration 1000.0 nM
[18] = molecular target: NUAK family SNF1-like kinase 1 (Homo sapiens) (UniProt O60285); settings: Compound concentration 1000.0 nM
NUAK family SNF1-like kinase 1 (Homo sapiens), sequence (O60285 whole entry): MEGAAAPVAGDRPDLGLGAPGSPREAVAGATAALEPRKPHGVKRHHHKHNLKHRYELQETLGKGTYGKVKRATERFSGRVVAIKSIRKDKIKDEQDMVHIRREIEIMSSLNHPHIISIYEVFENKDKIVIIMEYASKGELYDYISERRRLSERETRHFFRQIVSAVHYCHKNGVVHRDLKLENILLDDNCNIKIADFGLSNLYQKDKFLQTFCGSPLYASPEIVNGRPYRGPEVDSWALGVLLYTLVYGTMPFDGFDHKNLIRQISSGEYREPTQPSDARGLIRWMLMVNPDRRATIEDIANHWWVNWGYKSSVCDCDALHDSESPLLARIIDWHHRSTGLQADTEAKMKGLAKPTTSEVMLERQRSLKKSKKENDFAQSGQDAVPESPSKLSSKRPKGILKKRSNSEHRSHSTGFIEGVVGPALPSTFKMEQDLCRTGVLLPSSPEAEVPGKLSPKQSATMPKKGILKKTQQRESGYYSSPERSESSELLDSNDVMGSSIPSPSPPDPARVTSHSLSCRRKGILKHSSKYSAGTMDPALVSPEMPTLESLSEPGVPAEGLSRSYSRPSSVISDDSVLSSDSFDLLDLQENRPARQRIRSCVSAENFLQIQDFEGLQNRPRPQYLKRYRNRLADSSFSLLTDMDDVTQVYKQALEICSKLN

[19] = molecular target: Mitotic checkpoint serine/threonine-protein kinase BUB1 (Homo sapiens) (UniProt O43683); settings: Compound concentration 1000.0 nM
[20] = molecular target: Eukaryotic translation initiation factor 2-alpha kinase 1 (Homo sapiens) (UniProt Q9BQI3); settings: Compound concentration 1000.0 nM
[21] = molecular target: T2, Alpha-2C adrenergic receptor (Homo sapiens) (UniProt P18825); settings: Compound concentration 10.0 uM
T2 sequence (whole entry): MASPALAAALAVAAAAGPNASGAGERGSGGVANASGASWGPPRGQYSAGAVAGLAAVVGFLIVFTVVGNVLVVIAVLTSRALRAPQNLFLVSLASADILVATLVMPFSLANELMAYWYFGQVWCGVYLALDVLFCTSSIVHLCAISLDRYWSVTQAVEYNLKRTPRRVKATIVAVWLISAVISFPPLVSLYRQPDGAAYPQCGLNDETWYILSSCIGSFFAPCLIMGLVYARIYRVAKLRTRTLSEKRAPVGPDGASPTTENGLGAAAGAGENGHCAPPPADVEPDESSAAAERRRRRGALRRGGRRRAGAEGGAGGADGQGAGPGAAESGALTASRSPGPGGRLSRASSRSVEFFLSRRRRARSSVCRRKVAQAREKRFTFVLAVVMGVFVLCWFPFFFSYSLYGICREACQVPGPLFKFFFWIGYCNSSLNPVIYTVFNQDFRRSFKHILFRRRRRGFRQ

[22] = molecular target: Dual specificity tyrosine-phosphorylation-regulated kinase 1B (Homo sapiens) (UniProt Q9Y463); settings: Compound concentration 1000.0 nM
Dual specificity tyrosine-phosphorylation-regulated kinase 1B (Homo sapiens), sequence (Q9Y463 whole entry, looked up): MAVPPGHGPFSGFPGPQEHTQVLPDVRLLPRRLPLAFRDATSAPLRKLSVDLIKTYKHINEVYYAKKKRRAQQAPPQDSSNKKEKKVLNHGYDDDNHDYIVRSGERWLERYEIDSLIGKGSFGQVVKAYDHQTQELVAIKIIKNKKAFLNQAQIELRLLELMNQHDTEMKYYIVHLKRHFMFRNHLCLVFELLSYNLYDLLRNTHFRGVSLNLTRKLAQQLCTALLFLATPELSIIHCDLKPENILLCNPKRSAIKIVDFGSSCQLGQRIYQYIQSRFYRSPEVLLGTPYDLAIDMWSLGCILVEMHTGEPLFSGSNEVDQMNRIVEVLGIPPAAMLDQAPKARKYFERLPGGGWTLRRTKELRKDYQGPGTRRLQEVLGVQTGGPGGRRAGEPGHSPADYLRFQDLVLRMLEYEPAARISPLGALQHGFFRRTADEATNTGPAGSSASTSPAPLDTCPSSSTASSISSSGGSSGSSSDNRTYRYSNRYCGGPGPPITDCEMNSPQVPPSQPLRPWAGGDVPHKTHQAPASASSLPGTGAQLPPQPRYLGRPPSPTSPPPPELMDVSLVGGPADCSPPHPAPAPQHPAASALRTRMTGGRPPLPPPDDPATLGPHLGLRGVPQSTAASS

[23] = molecular target: Serine/threonine-protein kinase 17B (Homo sapiens) (UniProt O94768); settings: Compound concentration 1000.0 nM
Serine/threonine-protein kinase 17B (Homo sapiens), sequence (O94768 whole entry): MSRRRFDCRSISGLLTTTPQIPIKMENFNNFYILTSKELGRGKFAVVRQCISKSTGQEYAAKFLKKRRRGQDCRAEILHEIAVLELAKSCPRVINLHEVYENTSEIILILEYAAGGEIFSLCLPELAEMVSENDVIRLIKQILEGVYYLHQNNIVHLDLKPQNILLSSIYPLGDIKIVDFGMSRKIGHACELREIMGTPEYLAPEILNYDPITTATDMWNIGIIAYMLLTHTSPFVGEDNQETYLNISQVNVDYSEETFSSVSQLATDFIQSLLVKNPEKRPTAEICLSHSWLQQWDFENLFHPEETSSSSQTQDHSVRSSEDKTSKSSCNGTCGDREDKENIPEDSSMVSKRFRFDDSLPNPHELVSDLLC

[24] = molecular target: Ephrin type-A receptor 2 (Homo sapiens) (UniProt P29317); settings: Compound concentration 1000.0 nM
[25] = molecular target: Ephrin type-A receptor 1 (Homo sapiens) (UniProt P21709); settings: Compound concentration 1000.0 nM
[26] = molecular target: Cyclin-dependent kinase 7 (Homo sapiens) (UniProt P50613); settings: Compound concentration 1000.0 nM
[27] = molecular target: Cyclin-dependent kinase-like 5 (Homo sapiens) (UniProt O76039); settings: Compound concentration 1000.0 nM
Cyclin-dependent kinase-like 5 (Homo sapiens), sequence (O76039 whole entry): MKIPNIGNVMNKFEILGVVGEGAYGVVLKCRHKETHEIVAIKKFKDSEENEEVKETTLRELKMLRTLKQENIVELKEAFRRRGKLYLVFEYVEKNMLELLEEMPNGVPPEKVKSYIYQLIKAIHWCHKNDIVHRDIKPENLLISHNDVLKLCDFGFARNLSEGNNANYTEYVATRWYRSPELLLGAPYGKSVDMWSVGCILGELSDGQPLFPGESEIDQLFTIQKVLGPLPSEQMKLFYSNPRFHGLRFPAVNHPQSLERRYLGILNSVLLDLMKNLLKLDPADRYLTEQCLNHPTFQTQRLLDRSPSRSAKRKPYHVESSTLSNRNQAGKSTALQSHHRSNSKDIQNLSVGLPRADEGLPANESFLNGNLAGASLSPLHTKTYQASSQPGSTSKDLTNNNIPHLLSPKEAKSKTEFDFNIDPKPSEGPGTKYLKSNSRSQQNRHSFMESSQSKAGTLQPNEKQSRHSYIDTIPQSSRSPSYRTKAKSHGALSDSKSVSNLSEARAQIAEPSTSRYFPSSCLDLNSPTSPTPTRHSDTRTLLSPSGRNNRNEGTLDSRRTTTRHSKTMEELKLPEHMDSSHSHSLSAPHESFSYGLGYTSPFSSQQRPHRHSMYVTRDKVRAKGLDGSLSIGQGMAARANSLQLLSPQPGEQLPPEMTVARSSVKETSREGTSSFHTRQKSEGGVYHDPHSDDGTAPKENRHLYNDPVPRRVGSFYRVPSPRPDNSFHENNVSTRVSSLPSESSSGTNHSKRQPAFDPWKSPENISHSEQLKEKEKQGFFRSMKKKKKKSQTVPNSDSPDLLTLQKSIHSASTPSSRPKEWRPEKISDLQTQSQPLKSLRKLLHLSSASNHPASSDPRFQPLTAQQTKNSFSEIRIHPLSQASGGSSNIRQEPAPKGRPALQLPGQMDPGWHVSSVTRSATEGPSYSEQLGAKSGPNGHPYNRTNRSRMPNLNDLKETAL

[28] = molecular target: RAC-beta serine/threonine-protein kinase (Homo sapiens) (UniProt P31751); settings: Compound concentration 1000.0 nM
RAC-beta serine/threonine-protein kinase (Homo sapiens), sequence (P31751 whole entry): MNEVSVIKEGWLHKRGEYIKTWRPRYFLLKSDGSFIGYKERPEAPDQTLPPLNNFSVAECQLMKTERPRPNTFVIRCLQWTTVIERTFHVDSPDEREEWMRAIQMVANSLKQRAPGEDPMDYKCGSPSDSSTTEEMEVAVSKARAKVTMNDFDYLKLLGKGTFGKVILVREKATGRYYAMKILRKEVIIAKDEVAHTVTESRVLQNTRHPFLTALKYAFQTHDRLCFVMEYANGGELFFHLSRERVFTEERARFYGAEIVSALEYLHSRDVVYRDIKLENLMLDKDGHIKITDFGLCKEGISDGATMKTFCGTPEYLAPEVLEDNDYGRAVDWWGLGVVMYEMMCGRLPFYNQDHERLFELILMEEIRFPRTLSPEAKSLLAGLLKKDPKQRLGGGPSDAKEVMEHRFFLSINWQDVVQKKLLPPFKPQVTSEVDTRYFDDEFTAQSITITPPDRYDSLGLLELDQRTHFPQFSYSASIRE

[29] = molecular target: Serine/threonine-protein kinase ULK1 (Homo sapiens) (UniProt O75385); settings: Compound concentration 1000.0 nM
[30] = molecular target: Testis-specific serine/threonine-protein kinase 3 (Homo sapiens) (UniProt Q96PN8); settings: Compound concentration 1000.0 nM
Testis-specific serine/threonine-protein kinase 3 (Homo sapiens), sequence (Q96PN8 whole entry): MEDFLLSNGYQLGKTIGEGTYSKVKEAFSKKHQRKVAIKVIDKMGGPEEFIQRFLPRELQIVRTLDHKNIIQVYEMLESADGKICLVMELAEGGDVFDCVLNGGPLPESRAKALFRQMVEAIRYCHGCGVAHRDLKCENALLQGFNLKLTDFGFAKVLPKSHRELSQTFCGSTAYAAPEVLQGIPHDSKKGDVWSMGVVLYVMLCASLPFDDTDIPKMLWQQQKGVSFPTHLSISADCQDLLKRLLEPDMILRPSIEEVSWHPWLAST

[31] = molecular target: MAP kinase-activated protein kinase 5 (Homo sapiens) (UniProt Q8IW41); settings: Compound concentration 1000.0 nM
MAP kinase-activated protein kinase 5 (Homo sapiens), sequence (Q8IW41 whole entry): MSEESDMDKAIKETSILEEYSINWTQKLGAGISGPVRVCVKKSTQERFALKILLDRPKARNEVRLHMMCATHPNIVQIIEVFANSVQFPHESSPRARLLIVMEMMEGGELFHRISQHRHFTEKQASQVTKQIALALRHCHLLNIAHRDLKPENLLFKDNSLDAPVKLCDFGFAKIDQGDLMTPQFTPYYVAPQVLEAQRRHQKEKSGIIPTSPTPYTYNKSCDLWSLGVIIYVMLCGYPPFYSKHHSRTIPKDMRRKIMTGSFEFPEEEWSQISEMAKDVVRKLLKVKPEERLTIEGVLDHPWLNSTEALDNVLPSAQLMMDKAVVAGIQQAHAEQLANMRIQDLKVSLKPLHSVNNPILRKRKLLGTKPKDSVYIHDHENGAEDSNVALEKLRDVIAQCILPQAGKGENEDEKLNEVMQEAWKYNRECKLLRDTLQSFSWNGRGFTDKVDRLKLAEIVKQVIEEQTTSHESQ

`CNCc1ccccc1-c1csc([C@@H](C)Nc2nc(C)nc3cc(OC)c(OC)cc23)c1` [BAY-293] was tested, and the residual activity [1] was 88%, the residual activity [2] was 81% and the residual activity [3] was 97%. The residual activity [4] was 98%, the residual activity [5] was 93% and the residual activity [6] was 76%. It also gave a residual activity [7] of 98%, a residual activity [8] of 90% and a residual activity [9] of 87%. It also gave a residual activity [10] of 97%, a residual activity [11] of 76% and a Ki ([12]; read-out: Ki) of 956 nM. It also gave a Ki ([12]; read-out: pKi (converted)) of 944 nM, a residual activity [13] of 99% and a residual activity [14] of 77%. The residual activity [15] was 100%, the Ki ([16]; read-out: Ki) was 133 nM and the Ki ([16]; read-out: pKi (converted)) was 110 nM. It also gave a residual activity [17] of 100%, a residual activity [18] of 97% and a residual activity [19] of 100%. For the same compound, the residual activity [20] was 100%, the inhibition [21] was 94.2% and the residual activity [22] was 64%. For the same compound, the residual activity [23] was 92%, the residual activity [24] was 76% and the residual activity [25] was 79%. The residual activity [26] was 63%, the residual activity [27] was 94% and the residual activity [28] was 72%. It also gave a residual activity [29] of 88%, a residual activity [30] of 100% and a residual activity [31] of 88%.
Work on `CNCc1ccccc1-c1csc([C@H](C)Nc2nc(C)nc3cc(OC)c(OC)cc23)c1` [BAY-294] yielded a residual activity [1] of 93%, a residual activity [2] of 70% and a residual activity [3] of 100%. The residual activity [4] was 100%, the residual activity [5] was 90% and the residual activity [6] was 87%. It also gave a residual activity [7] of 100%, a residual activity [8] of 100% and a residual activity [9] of 100%. For the same compound, the residual activity [10] was 100%, the residual activity [11] was 100% and the Ki ([12]; read-out: Ki) was 524 nM. The residual activity [13] was 100%, the residual activity [14] was 100% and the residual activity [15] was 100%. For the same compound, the Ki ([16]; read-out: Ki) was 69.4 nM, the residual activity [17] was 100% and the residual activity [18] was 90%. For the same compound, the residual activity [19] was 100%, the residual activity [20] was 100% and the inhibition [21] was 94.2%. It also gave a residual activity [22] of 55%, a residual activity [23] of 100% and a residual activity [24] of 80%. The residual activity [25] was 100%, the residual activity [26] was 61% and the residual activity [27] was 87%. The residual activity [28] was 90%, the residual activity [29] was 91% and the residual activity [30] was 100%. The residual activity [31] was 100%.
